According to patent publication US20240336566A1, “CRYSTALLINE FORMS OF A COMPOUND FOR THE TARGETED DEGRADATION OF THE ANDROGEN RECEPTOR” (Arvinas Operations, Inc., priority 2023, published 2024):
Entries after “also recorded” stand apart in the source; their conditions may differ.

Test: Dynamic vapour sorption (DVS) with XRPD of retained solid
Type: physicochemical
Description: 10-20 mg of sample was placed into a mesh vapour sorption balance pan and loaded into a DVS-1 dynamic vapour sorption balance by Surface Measurement Systems. The sample was subjected to a ramping profile from 40-90% relative humidity (RH) at 10% increments, maintaining the sample at each step until a stable weight had been achieved (dm/dt 0.004%, minimum step length 30 minutes, maximum step length 500 minutes) at 25° C. After completion of the sorption cycle, the sample was dried using the same procedure to 0% RH and then a second sorption cycle back to 40% RH. Two cycles were performed. The weight change during the sorption/desorption cycles were plotted, allowing for the hygroscopic nature of the sample to be determined. XRPD analysis was then carried out on any solid retained.

COc1cc(O[C@H]2C(C)(C)[C@H](NC(=O)c3ccc(N4CCC(CN5CCN(c6ccc(C(=O)N[C@H]7CCC(=O)NC7=O)c(F)c6)CC5)CC4)cc3)C2(C)C)ccc1C#N [Compound A, 4-(4-((1-(4-(((1R,3R)-3-(4-cyano-3-methoxyphenoxy)-2,2,4,4-tetramethylcyclobutyl)carbamoyl)phenyl)piperidin-4-yl)methyl)piperazin-1-yl)-N—((S)-2,6-dioxopiperidin-3-yl)-2-fluorobenzamide]
form by XRPD post DVS: Crystallization was not observed; also recorded: remained amorphous by XRPD | hygroscopic nature (DVS) (25° C.): hygroscopic | average mass uptake of water (DVS) (at 90% RH, 25° C.): 4.08 wt. % | mass uptake of water (DVS), equivalents (at 90% RH, 25° C.): 1.91 eq.
